Source: patent US20220288075A1, “METHOD AND COMPOSITION FOR TREATING PAIN” (ACADEMIA SINICA, priority 2019, published 2022)

Legend:
RISS mice = assay: RISS (repeated and intermittent sound stress) model, sensory testing (von Frey, muscle withdrawal threshold, Hargreaves); type: in vivo; settings: darapladib 10 mg/kg i.p. once daily throughout the RISS procedure, vs vehicle; FIG. 3N
Description: Sound stressors were applied as described^14, 43 with modification. Mice were placed (3 per cage) in a 20×30×15 cm bedding cage, which was kept 25 cm below a speaker, inside a 40×50×35 cm sound-insulated box. A speaker emitted pure tones at 5 frequencies (5, 11, 13, 15 and 19 kHz) with random amplitudes varied over time for each frequency (0, 20, 60, 90, and 100 dB sound). Each tone stimulus lasted for 5 or 10 sec in random order, and mice were stimulated continuously without interval. The sound stressors continued for 30 min as a set. In the original SS (sound stress) protocol, a set of 30-min stimuli was given once a day on days 1, 3, and 4 (FIG. 1A)^14. The RISS model intensified the stress protocol by increasing the stimulus frequency: a set of sound stimulus was repeated every 3 hours for 6 times overnight (from 16:00 to 10:00), followed by resting silence for 6 hours (from 10:00 to 16:00). The procedure was repeated on days 1, 3, and 4 as for the SS protocol. The control groups were placed in similar chambers for 4 days without stress exposure. Both groups of mice had access to food and water freely during the stress period. After the stimulus procedure, mice were returned to their original home cages in the animal care facility. In both the SS and RISS protocols, the day after completing the stress stimuli is called P0; the post-stress day 1, P1; and so on. In the experimental design of the […] single-day stimuli of intermittent SS (SISS), the day after SISS is called P′0; the post-stress day 1, P′1; and so on.
Animals were placed on an elevated mesh platform, and a 0.2-mN von Frey filament was applied to the plantar surface of both hind paws. A positive response was defined as lifting, shaking, guarding, or licking paws when the stimulus was applied. For each paw, the filament was applied 5 times at 30-sec intervals.
Mice were placed individually in Acrylic cubicles mounted on a glass surface maintained at 30° C. The test was performed after acclimatization. The thermal stimulus of the radiant heat was then applied to the plantar surface of each hind paw. Each mouse was tested in three sequential trials with an interval of 2-3 min. The assay cutoff was set at 30 sec to prevent tissue damage. Paw withdrawal latencies were calculated as the mean of three measures.
Muscle withdrawal thresholds were evaluated as described^46. […]
Analgesic drugs: Pregabalin (0.3, 1, 3 or 10 mg/kg bodyweight, i.p.; Toronto Research Chemicals), morphine (0.3, 1, 3 or 10 mg/kg bodyweight, i.p.), diclofenac (1, 3 or 10 mg/kg bodyweight, i.p.; Sigma-Aldrich) or vehicle (0.9% saline) was administered, and the effect of each drug was evaluated by testing 6 mice. […]

LPC16:0 = assay: Serum LPC16:0 level in RISS mice at P0 by mass spectrometry; type: in vivo; settings: darapladib 10 mg/kg i.p. once daily, P0, triple quadrupole MS, vs vehicle; FIG. 3N
Procedure: Antioxidants: Systemic administration of NAC (200 mg/kg bodyweight, i.p.; Sigma-Aldrich) with Tempol (100 mg/kg bodyweight, i.p.; Sigma-Aldrich) or vehicle (phosphate buffered saline; PBS) was given 30 min before and after each RISS procedure at days 1, 3 and 4 (FIG. 3M)^48-50. A total of 6 doses of drug were given during the RISS protocol. Sensory testing was performed 1 hour after the last drug injection at P0 and at P4 and P7. PAF-AH inhibitors. Darapladib (Cayman, Ann Arbor, Mich.) was solubilized in DMSO: PBS containing 1% methyl-β-cyclodextrin (1:99) and given once daily by i.p. injection at 10 mg/kg body weight. Mice were randomly assigned to receive vehicle or darapladib for 5 consecutive days during RISS (FIG. 3M). […] Triple quadrupole mass spectrometry (QqQ MS) for absolute quantitative analysis of target lipids. Targeted analysis of LPC16:0, LPC18:0 and SM(d18:1/18:0) was measured by using an Agilent-1200 liquid chromatography system coupled to an Agilent-6410 QqQ MS with an ESI interface. […] Lipidomic profiling for relative quantitative analysis. Lipids were identified by comparing the LC/MS profiles of the metabolites of interest to that of a standard compound analyzed with identical conditions, and their relative abundance among samples was further evaluated. […] Collected data were processed with Progenesis QI (Waters) for lipid identification and relative quantitative analysis.

CCN(CC)CCN(Cc1ccc(-c2ccc(C(F)(F)F)cc2)cc1)C(=O)Cn1c(SCc2ccc(F)cc2)nc(=O)c2c1CCC2 [darapladib, N-[2-(diethylamino)ethyl]-2-{2-[(4-fluorobenzyl)sulfanyl]-4-oxo-4,5,6,7-tetrahydro-1H-cyclopenta[d]pyrimidin-1-yl}-N-{[4′-(trifluoromethyl)biphenyl-4-yl]methyl}acetamide]
development of RISS-induced chronic hypersensitivity (von Frey test) (RISS mice): prevented the development of chronic hypersensitivity | LPC16:0 production after RISS (serum level) (LPC16:0): significantly reduced
